Measured values as given in publication PMC11460214 (RSC Advances, 2024).

Target: T1, dihydrofolate reductase (Homo sapiens, UniProt P00374)
T1 sequence (P00374 1-187): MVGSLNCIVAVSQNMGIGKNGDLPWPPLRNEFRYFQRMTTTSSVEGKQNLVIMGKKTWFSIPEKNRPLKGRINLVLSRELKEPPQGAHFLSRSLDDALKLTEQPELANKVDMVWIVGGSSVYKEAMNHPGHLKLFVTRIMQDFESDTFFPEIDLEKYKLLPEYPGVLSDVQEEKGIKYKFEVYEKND
Assay: Dihydrofolate reductase enzyme inhibition assay
Type: biochemical
Conditions: for inhibition at 500 µM: read-out: % inhibition (0.5 mM)

IC50 | inhibition at 500 µM | SMILES
36.2 ± 0.69 µM | 81.3% | S=C(NN=Cc1ccc(N2CCCC2)cc1)Nc1cccc(Cl)c1Cl [Compound 5c, N-(2,3-Dichlorophenyl)-2-[4-(pyrrolidin-1-yl)benzylidene]hydrazinecarbothioamide]
23.1 ± 0.35 µM | 86.7% | COc1cccc(NC(=S)NN=Cc2ccc(N3CCCC3)cc2)c1 [Compound 5h, N-(3-Methoxyphenyl)-2-[4-(pyrrolidin-1-yl)benzylidene]hydrazinecarbothioamide]
35.3 ± 0.59 µM | 77.3% | Fc1ccccc1NC(=S)NN=Cc1ccc(N2CCCC2)cc1 [Compound 5q, N-(2-Fluorophenyl)-2-[4-(pyrrolidin-1-yl)benzylidene]hydrazinecarbothioamide]
22.1 ± 0.37 µM | 88.2% | S=C(NN=Cc1ccc(N2CCCC2)cc1)Nc1cccc(Br)c1 [Compound 5n, N-(3-Bromophenyl)-2-[4-(pyrrolidin-1-yl)benzylidene]hydrazinecarbothioamide]
14.4 ± 0.29 µM | 89.5% | Cc1ccc(NC(=S)NN=Cc2ccc(N3CCCC3)cc2)cc1 [Compound 5g, 2-[4-(Pyrrolidin-1-yl)benzylidene]-N-(p-tolyl)hydrazinecarbothioamide]
16.3 ± 0.26 µM | 90.8% | S=C(NN=Cc1ccc(N2CCCC2)cc1)Nc1ccc(Br)cc1 [Compound 5m, N-(4-Bromophenyl)-2-[4-(pyrrolidin-1-yl)benzylidene]hydrazinecarbothioamide]
48.2 ± 0.6 µM | 74.6% | S=C(NCc1ccccc1)NN=Cc1ccc(N2CCCC2)cc1 [Compound 5p, N-Benzyl-2-[4-(pyrrolidin-1-yl)benzylidene]hydrazinecarbothioamide]
12.4 ± 0.25 µM | 91.5% | S=C(NCCc1ccccc1)NN=Cc1ccc(N2CCCC2)cc1 [Compound 5l, N-Phenethyl-2-[4-(pyrrolidin-1-yl)benzylidene]hydrazinecarbothioamide]
21.2 ± 0.44 µM | 86.2% | S=C(NN=Cc1ccc(N2CCCC2)cc1)Nc1ccccc1 [Compound 5f, N-Phenyl-2-[4-(pyrrolidin-1-yl)benzylidene]hydrazinecarbothioamide]
33.1 ± 0.71 µM | 80.6% | Fc1ccc(NC(=S)NN=Cc2ccc(N3CCCC3)cc2)cc1 [Compound 5b, N-(4-Fluorophenyl)-2-[4-(pyrrolidin-1-yl)benzylidene]hydrazinecarbothioamide]
42.2 ± 0.63 µM | 79.8% | Cc1ccc(CNC(=S)NN=Cc2ccc(N3CCCC3)cc2)cc1 [Compound 5r, N-(4-Methylbenzyl)-2-[4-(pyrrolidin-1-yl)benzylidene]hydrazinecarbothioamide]
27.5 ± 0.5 µM | 83.9% | S=C(NCc1ccc(Cl)cc1)NN=Cc1ccc(N2CCCC2)cc1 [Compound 5i, N-(4-Chlorobenzyl)-2-[4-(pyrrolidin-1-yl)benzylidene]hydrazinecarbothioamide]
29.1 ± 0.38 µM | 83.6% | S=C(NN=Cc1ccc(N2CCCC2)cc1)NC1CCCCC1 [Compound 5a, N-Cyclohexyl-2-[4-(pyrrolidin-1-yl)benzylidene]hydrazinecarbothioamide]
15.3 ± 0.26 µM | 90.2% | Cc1cccc(C)c1NC(=S)NN=Cc1ccc(N2CCCC2)cc1 [Compound 5e, N-(2,6-Dimethylphenyl)-2-[4-(pyrrolidin-1-yl)benzylidene]hydrazinecarbothioamide]
40.6 ± 0.59 µM | 76.9% | S=C(NCCN1CCOCC1)NN=Cc1ccc(N2CCCC2)cc1 [Compound 5k, N-(2-Morpholinoethyl)-2-[4-(pyrrolidin-1-yl)benzylidene]hydrazinecarbothioamide]
54.1 ± 0.72 µM | 74.1% | O=[N+]([O-])c1ccc(NC(=S)NN=Cc2ccc(N3CCCC3)cc2)cc1 [Compound 5j, N-(4-Nitrophenyl)-2-[4-(pyrrolidin-1-yl)benzylidene]hydrazinecarbothioamide]
12.4 ± 0.48 µM | 91.1% | COc1ccc(NC(=S)NN=Cc2ccc(N3CCCC3)cc2)cc1 [Compound 5d, N-(4-Methoxyphenyl)-2-[4-(pyrrolidin-1-yl)benzylidene]hydrazinecarbothioamide]
45.3 ± 0.63 µM | 75.6% | O=[N+]([O-])c1cccc(NC(=S)NN=Cc2ccc(N3CCCC3)cc2)c1 [Compound 5o, N-(3-Nitrophenyl)-2-[4-(pyrrolidin-1-yl)benzylidene]hydrazinecarbothioamide]
